Patent US20210401931A1, “METHODS AND MATERIALS FOR TREATING CANCER” (Mayo Foundation for Medical Education and Research, priority 2018, published 2021)
Entries after “also recorded” stand apart in the source; their conditions may differ.

T1: retinoblastoma protein RB (endogenous) (human, UniProt P06400 2-928)
T1 construct: Endogenous protein of cell lysates, phosphorylation state as in the cells; also called RB1; endogenous RB
T1 sequence (looked up): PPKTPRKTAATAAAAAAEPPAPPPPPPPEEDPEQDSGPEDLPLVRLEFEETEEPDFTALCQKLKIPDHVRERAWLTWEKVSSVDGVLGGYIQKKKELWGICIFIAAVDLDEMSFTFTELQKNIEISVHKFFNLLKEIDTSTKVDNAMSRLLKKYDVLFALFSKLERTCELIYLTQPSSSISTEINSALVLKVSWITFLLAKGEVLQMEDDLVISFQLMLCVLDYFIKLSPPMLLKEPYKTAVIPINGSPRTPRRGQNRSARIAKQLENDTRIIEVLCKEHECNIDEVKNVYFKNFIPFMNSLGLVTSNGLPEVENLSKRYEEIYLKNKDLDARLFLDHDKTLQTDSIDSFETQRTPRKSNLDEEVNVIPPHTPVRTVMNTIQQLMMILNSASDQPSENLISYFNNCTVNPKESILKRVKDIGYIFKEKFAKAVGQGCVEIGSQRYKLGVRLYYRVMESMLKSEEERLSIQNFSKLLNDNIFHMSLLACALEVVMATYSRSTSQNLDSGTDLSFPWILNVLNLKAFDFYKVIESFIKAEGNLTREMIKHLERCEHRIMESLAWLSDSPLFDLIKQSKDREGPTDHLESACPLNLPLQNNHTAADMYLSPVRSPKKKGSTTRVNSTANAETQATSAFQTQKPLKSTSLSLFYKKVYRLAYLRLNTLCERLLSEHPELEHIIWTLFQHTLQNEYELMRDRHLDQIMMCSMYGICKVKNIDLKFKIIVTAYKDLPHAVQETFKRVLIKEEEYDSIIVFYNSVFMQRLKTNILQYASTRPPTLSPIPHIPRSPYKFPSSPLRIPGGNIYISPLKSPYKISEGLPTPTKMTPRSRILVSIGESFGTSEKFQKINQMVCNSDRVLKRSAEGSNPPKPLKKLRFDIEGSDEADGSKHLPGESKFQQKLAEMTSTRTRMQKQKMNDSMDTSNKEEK

B1: c-Rel (other, human, UniProt Q04864 2-619, looked up)
chain: ASGAYNPYIEIIEQPRQRGMRFRYKCEGRSAGSIPGEHSTDNNRTYPSIQIMNYYGKGKVRITLVTKNDPYKPHPHDLVGKDCRDGYYEAEFGQERRPLFFQNLGIRCVKKKEVKEAIITRIKAGINPFNVPEKQLNDIEDCDLNVVRLCFQVFLPDEHGNLTTALPPVVSNPIYDNRAPNTAELRICRVNKNCGSVRGGDEIFLLCDKVQKDDIEVRFVLNDWEAKGIFSQADVHRQVAIVFKTPPYCKAITEPVTVKMQLRRPSDQEVSESMDFRYLPDEKDTYGNKAKKQKTTLLFQKLCQDHVETGFRHVDQDGLELLTSGDPPTLASQSAGITVNFPERPRPGLLGSIGEGRYFKKEPNLFSHDAVVREMPTGVSSQAESYYPSPGPISSGLSHHASMAPLPSSSWSSVAHPTPRSGNTNPLSSFSTRTLPSNSQGIPPFLRIPVGNDLNASNACIYNNADDIVGMEASSMPSADLYGISDPNMLSNCSVNMMTTSSDSMGETDNPRLLSMNLENPSCNSVLDPRDLRQLHQMSSSSMSAGANSNTTVFVSQSDAFEGSDFSCADNSMINESGPSNSTNPNSHGFVQDSQYSGIGSMQNEQLSDSFPYEFFQV
B2: p52 (other, human, UniProt Q00653 1-454, looked up)
chain: MESCYNPGLDGIIEYDDFKLNSSIVEPKEPAPETADGPYLVIVEQPKQRGFRFRYGCEGPSHGGLPGASSEKGRKTYPTVKICNYEGPAKIEVDLVTHSDPPRAHAHSLVGKQCSELGICAVSVGPKDMTAQFNNLGVLHVTKKNMMGTMIQKLQRQRLRSRPQGLTEAEQRELEQEAKELKKVMDLSIVRLRFSAFLRASDGSFSLPLKPVISQPIHDSKSPGASNLKISRMDKTAGSVRGGDEVYLLCDKVQKDDIEVRFYEDDENGWQAFGDFSPTDVHKQYAIVFRTPPYHKMKIERPVTVFLQLKRKRGGDVSDSKQFTYYPLVEDKEEVQRKRRKALPTFSQPFGGGSHMGGGSGGAAGGYGGAGGGGSLGFFPSSLAYSPYQSGAGPMGCYPGGGGGAQMAATVPSRDSGEEAAEPSAPSRTPQCEPQAPEMLQRAREYNARLFGLA
B3: RelB (other, human, UniProt Q01201 1-579, looked up)
chain: MLRSGPASGPSVPTGRAMPSRRVARPPAAPELGALGSPDLSSLSLAVSRSTDELEIIDEYIKENGFGLDGGQPGPGEGLPRLVSRGAASLSTVTLGPVAPPATPPPWGCPLGRLVSPAPGPGPQPHLVITEQPKQRGMRFRYECEGRSAGSILGESSTEASKTLPAIELRDCGGLREVEVTACLVWKDWPHRVHPHSLVGKDCTDGICRVRLRPHVSPRHSFNNLGIQCVRKKEIEAAIERKIQLGIDPYNAGSLKNHQEVDMNVVRICFQASYRDQQGQMRRMDPVLSEPVYDKKSTNTSELRICRINKESGPCTGGEELYLLCDKVQKEDISVVFSRASWEGRADFSQADVHRQIAIVFKTPPYEDLEIVEPVTVNVFLQRLTDGVCSEPLPFTYLPRDHDSYGVDKKRKRGMPDVLGELNSSDPHGIESKRRKKKPAILDHFLPNHGSGPFLPPSALLPDPDFFSGTVSLPGLEPPGGPDLLDDGFAYDPTAPTLFTMLDLLPPAPPHASAVVCSGGAGAVVGETPGPEPLTLDSYQAPGPGDGGTASLVGSNMFPNHYREAAFGGGLLSPGPEAT

Experiments:
[1] = test system: PD-L1 mRNA; test: PD-L1 mRNA expression by RT-qPCR in PC-3 cells treated with chemicals; format: cell-based, human; conditions: 24 hours; for PD-L1 mRNA expression: RT-qPCR; for palbociclib-induced elevation of PD-L1: co-treatment with palbociclib
Experimental: FIGS. 1A-K. RB suppresses PD-L1 mRNA expression. (A) PC-3 cell were treated with indicated chemicals for 24 hours. Cells were harvested for RT-qPCR. All data were shown as mean values±SD (n=3). * P<0.05, ** P<0.01, *** P<0.001. (B) PC-3 cells were infected with lentivirus expressing control or CDK4 and CDK6-specific shRNAS. 72 hours after infection, cells were harvested for RT-qPCR. All data were shown as mean values±SD (n=3). *** P<0.001. (C-F) PC-3 cells were infected with lentivirus expressing control or RB1-specific shRNAs. 48 hours after infection, PD-L1 protein levels were determined by western blotting (C), RT-qPCR (D), FACS (E), and IFC (F). All data were shown as mean values±SD (n=3). * P<0.05, ** P<0.01, *** P<0.001. (G) PD-L1 mRNA levels were determined by RT-qPCR in SKO and DKO mouse prostate tumor cells. All data were shown as mean values±SD (n=3). * P<0.05, ** P<0.01, *** P<0.001. (H-J) SKO (H), DKO (I), and Rb^−/−PrE (J) cells were treated with palbociclib for 24 hours. Cells were harvested for RT-qPCR. All data were shown as mean values±SD (n=3). * P<0.05, ** P<0.01, *** P<0.001. (K) The putative copy-number calls for RB1 were determined using GISTC 2.0, and the mRNA expression for CD274(PD-L1) was measured by log 2(RPKM), here RPKM stands for Reads Per Kilobase of transcript per Million mapped reads. […] The nonparametric Mann-Whitney U test was used for the statistical test.
FIGS. 8A-D. (A) PC-3, MIA PaCa-2, H1299, SK-Hep1, and PTEN-CaP8 cells were treated with different doses of palbociclib for 24 hours. Cells were harvested for RT-qPCR. All data were shown as mean values±SD (n=3). * P<0.05, ** P<0.01. (B) PC-3 cell were treated with indicated chemicals for 24 hours. Cells were harvested for RT-qPCR. All data were shown as mean values±SD (n=3). Ns, not significant, * P<0.05, ** P<0.01. (C, D) PC-3 cells were infected with lentivirus expressing control shRNA or RB1-specific shRNA. 24 hours after puromycin selection, cells were treated with or without Helenalin (2 μM) for 24 hours. Cells were harvested for western blotting analysis (C) and RT-qPCR (D). All data were shown as mean values±SD (n=3). Ns, not significant, *** P<0.001.
FIGS. 13A-F. (A, B) PC-3 cells were treated with or without gamma irradiation (IR) (12 Gy). 24 hours post treatment, cells were treated with or without Helenalin (2 μM). 24 hours after treatment, cells were harvested for western blotting analysis (A) and RT-qPCR analysis (B). All data were shown as mean values±SD (n=3). “ns”=not significant, *** P<0.001. (C) PTEN-CaP8 cells were infected with lentivirus expression Tsin control or Tsin-RL S249D/T252D peptide. 72 hours post infection, cell were harvested for western blotting analysis. (D, E) PTEN-CaP8 cells were infected with lentivirus expression Tsin control or Tsin-RL S249D/T252D peptide. 72 hours post infection, cells were treated with or without gamma irradiation (12 Gy) for 48 hours. Cells were harvested for MTS assay (D) and RT-qPCR (E). All data were shown as mean values±SD (n=3). “ns”=not significant, ** P<0.01; *** P<0.001. (F) Schematic diagram depicting the treatment plan for mice bearing subcutaneous PTEN-CaP8 tumors.
Total RNA was isolated using TRIzol reagent (Thermo Fisher Scientific). The NanoDrop 2000 spectrophotometer (Thermo Fisher Scientific) was used to assess RNA yield and quality. RNA was reversely transcribed using Superscript reverse transcriptase (Thermo Fisher Scientific) following manufacturer's instructions. Quantitative real-time PCR was performed by mixing cDNA, gene-specific primers, and IQ SYRB Green Supermix and detected by iCycler QTX detection system (Bio-Rad). The 2-ΔCt method was used to quantitate fold changes by normalizing to GAPDH. Primers for RT-qPCR are provided Table 4.

[2] = target: T1, retinoblastoma protein RB (endogenous); test: co-IP of endogenous proteins in PC-3 cells (FIGS. 2A and 18A)

Molecule	PD-L1 mRNA expression ([1]; PC-3 cells)	binding result [2]	further results
Cc1sc2c(c1C)C(c1ccc(Cl)cc1)=N[C@@H](CC(=O)OC(C)(C)C)c1nnc(C)n1-2 [JQ1]	dramatic downregulation	–	–
C=C1C(=O)O[C@@H]2C[C@@H](C)[C@@H]3C=CC(=O)[C@@]3(C)[C@@H](O)[C@H]12 [helenalin]	decreased	–	RB knockdown-induced PD-L1 upregulation ([1]; PC-3 cells with RB1 shRNA, Helenalin 2 μM): completely blocked; also recorded: inhibited; gamma irradiation-induced PD-L1 expression ([1]; PC-3 cells, 12 Gy, Helenalin 2 μM): abrogated; palbociclib-induced elevation of PD-L1 ([1]; PC-3 cells): completely abolished
CC[C@H](CO)Nc1nc(NCc2ccccc2)c2ncn(C(C)C)c2n1 [roscovitine]	dramatic downregulation	–	–
CN1CC[C@H](c2c(O)cc(O)c3c(=O)cc(-c4ccccc4Cl)oc23)[C@H](O)C1 [flavopiridol]	dramatic downregulation	–	palbociclib-induced elevation of PD-L1 ([1]; PC-3 cells): completely abolished
B1	–	no binding	–
B2	–	no binding	–
B3	–	no binding	–
